Molecular target: T1, human CYP17 (Homo sapiens, UniProt P05093)
T1 sequence (P05093 1-508): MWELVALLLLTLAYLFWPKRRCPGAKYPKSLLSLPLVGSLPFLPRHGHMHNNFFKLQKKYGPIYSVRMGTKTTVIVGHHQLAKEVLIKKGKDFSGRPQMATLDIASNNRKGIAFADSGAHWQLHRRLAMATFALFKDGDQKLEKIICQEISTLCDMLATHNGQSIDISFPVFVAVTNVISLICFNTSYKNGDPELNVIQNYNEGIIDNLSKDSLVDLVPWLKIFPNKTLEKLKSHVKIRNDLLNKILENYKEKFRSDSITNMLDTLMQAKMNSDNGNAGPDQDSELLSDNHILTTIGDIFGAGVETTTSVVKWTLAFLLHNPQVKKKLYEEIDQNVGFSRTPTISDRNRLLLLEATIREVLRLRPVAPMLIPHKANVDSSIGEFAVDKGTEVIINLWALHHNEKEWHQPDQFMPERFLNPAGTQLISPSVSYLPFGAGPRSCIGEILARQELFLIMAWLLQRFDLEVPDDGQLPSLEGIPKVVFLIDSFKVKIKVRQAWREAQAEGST
Assay: Cell-based human CYP17 inhibition assay, H295R adrenocortical carcinoma cells
Set-up: H295R Adrenocortical carcinoma cells [NCI-H295A, ATCC Number CRL-2128, American Type Culture Collection; host or cells: H295R adrenocortical carcinoma cells
Conditions: 16 hours at 37° C., read-out: CYP17 (human H295R adrenal cells)
Experimental: Cell-Based Human CYP17 Inhibition Assay
A. Materials • 1. H295R Adrenocortical Carcinoma Cells and Growth Media: The media for the H295R Adrenocortical carcinoma cells [NCI-H295A, ATCC Number CRL-2128, American Type Culture Collection, Manassas, Va., US] (500 mL) was a DMEM:F12 Mix 1:1 with 5% […] BD Nu Serum; 1% (5 mL) ITS+Premix [BD Biosciences] and 1% Penstrep. • 2. LNCap-CYP17 Cells and Growth Media: Full length hCYP17a1 gene (NCBI Reference Sequence: NM_000102.3) was cloned in pCDNA3.1(+) vector between HindIII and XhoI site. The pCDNA3.1(+) vector contains the Neomycin resistance gene and was used for selection of stable cell line. The hCYP17a1 containing pCDNA3.1(+) was transfected into LNCap cells to create the LNCap-CYP17 cell line. The media for the LNCaP-CYP17 cells was RPMI 1640, 10% FBS, 1% PenStrep, Geneticin 400 μg/mL.
The H295R cells or LNCaP-hCYP17 cells were subcultured and 30,000 cells per well were seeded in a poly-d lysine plate and incubated overnight at 37° C. The next day the media was removed and 200 µL of fresh media with ^3H3-17α-hydroxy-pregnenolone (1:1000) was added. 50 μL of serially diluted compounds from a 5× plate (5 times the final desired concentration) was added. The working concentration range for active, new compounds started from a high concentration of […] with 3-fold serial dilutions generating up to 10 concentrations. The serial dilution in the 100× plate (in DMSO) and the stamping of a 5× plate (in media) from the 100× plate were carried out using a TECAN liquid handling device.
The plates were incubated overnight (16 hours) at 37° C. After 16 hours, the media was removed (approximately 220 μL) and an equal amount of chloroform was added, mixed and incubated for 30 minutes at 4 degrees. The plate was centrifuged at 4000 rpm for 15 minutes at 4° C., following which the top aqueous layer was carefully removed and added into a new deep well plate. An equal volume of activated 5% charcoal was added, mixed and incubated for 30 minutes at 4° C. The plate was then centrifuged at 4000 rpm for 15 minutes at 4° C. and the top layer carefully separated, avoiding any charcoal contamination, and placed in a white, clear bottom plate (plate cat #3610, Corning Life Sciences). An equal volume of Microscint™ 40 was added and mixed well. Following the incubation for 30 minutes, readings for the radiotracer were taken using a Microbeta® trilux.

IC50 [µM]	Compound
0.05 to 0.2	CCOC(=O)c1ccc(-c2ccc(C(CC)n3ccnc3)nc2)cc1 (stereo not shown) [Example 5, Ethyl 4-(6-(1-(1H-imidazol-1-yl)propyl)pyridin-3-yl)benzoate]
0.201 to 10	CCC(c1ccc(-c2ccc(C(=O)O)cc2)cn1)n1ccnc1 (stereo not shown) [Example 6, 4-(6-(1-(1H-imidazol-1-yl)propyl)pyridin-3-yl)benzoic acid]
< 0.05	CCC(c1ccc(-c2cccc(OC)c2)cn1)n1ccnc1 (stereo not shown) [Example 7, 2-(1-(1H-imidazol-1-yl)propyl)-5-(3-methoxyphenyl)pyridine]
< 0.05	CCC(c1ccc(-c2cccc(O)c2)cn1)n1ccnc1 (stereo not shown) [Example 8, 3-(6-(1-(1H-imidazol-1-yl)propyl)pyridin-3-yl)phenol]
0.201 to 10	CCC(c1ccc(-c2ccc(C(=O)NC)cc2)cn1)n1ccnc1 (stereo not shown) [Example 9, 4-(6-(1-(1H-imidazol-1-yl)propyl)pyridin-3-yl)-N-methylbenzamide]
0.201 to 10	CCC(c1ccc(-c2ccc(C(N)=O)cc2)cn1)n1ccnc1 (stereo not shown) [Example 10, 4-(6-(1-(1H-imidazol-1-yl)propyl)pyridin-3-yl)benzamide]
0.05 to 0.2	CCC(c1ccc(-c2ccc(COCOC)cc2)cn1)n1ccnc1 (stereo not shown) [Example 11, 2-(1-(1H-imidazol-1-yl)propyl)-5-(4-((methoxymethoxy)methyl)-phenyl)pyridine]
0.201 to 10	CC(c1ccc(-c2ccc(N)cc2)cn1)n1ccnc1 (stereo not shown) [Example 14, 4-(6-(1-(1H-imidazol-1-yl)ethyl)pyridin-3-yl)aniline]
0.05 to 0.2	COc1ccc(-c2ccc(C(C)n3ccnc3)nc2)cc1 (stereo not shown) [Example 15, 2-(1-(1H-imidazol-1-yl)ethyl)-5-(4-methoxyphenyl)pyridine]
0.05 to 0.2	CC(c1ccc(-c2ccc(O)cc2)cn1)n1ccnc1 (stereo not shown) [Example 16, 4-(6-(1-(1H-imidazol-1-yl)ethyl)pyridin-3-yl)phenol]
0.05 to 0.2	CCC(c1ccc(-c2ccc(C#N)cc2)cn1)n1ccnc1 (stereo not shown) [Example 17, 4-[6-(1-Imidazol-1-yl-propyl)-pyridin-3-yl]-benzonitrile]
0.201 to 10	CCC(c1ccc(-c2ccccc2C#N)cn1)n1ccnc1 (stereo not shown) [Example 18, 2-(6-(1-(1H-imidazol-1-yl)propyl)pyridin-3-yl)benzonitrile]
< 0.05	CCC(c1ccc(-c2ccc(F)cc2)cn1)n1ccnc1 (stereo not shown) [Example 29, 5-(4-Fluoro-phenyl)-2-(1-imidazol-1-yl-propyl)-pyridine]
< 0.05	CCC(c1ccc(-c2ccccc2O)cn1)n1ccnc1 (stereo not shown) [Example 37, 2-[6-(1-Imidazol-1-yl-propyl)-pyridin-3-yl]-phenol]
0.05 to 0.2	CCC(c1ccc(-c2ccc(CO)cc2)cn1)n1ccnc1 (stereo not shown) [Example 41, {4-[6-(1-Imidazol-1-yl-propyl)-pyridin-3-yl]-phenyl}-methanol]

Continued, compound first:

Compound	IC50 [µM]
CCC(c1cnc(-c2cccc(F)c2)s1)n1ccnc1 (stereo not shown) [Example 1, 5-(1-(1H-imidazol-1-yl)propyl)-2-(3-fluorophenyl)thiazole]	0.05 to 0.2
CCC(c1ccc(-c2ccc(OC)cc2)s1)n1ccnc1 (stereo not shown) [Example 3, 1-(1-(5-(4-methoxyphenyl)thiophen-2-yl)propyl)-1H-imidazole]	< 0.05
CCC(c1ccc(-c2ccc(O)cc2)s1)n1ccnc1 (stereo not shown) [Example 4, 4-(5-(1-(1H-imidazol-1-yl)propyl)thiophen-2-yl)phenol]	< 0.05
CC(c1ccc(-c2ccc(F)cc2)cn1)n1ccnc1 (stereo not shown) [Example 12, 2-(1-(1H-imidazol-1-yl)ethyl)-5-(4-fluorophenyl)pyridine]	< 0.05
CC(c1ccc(-c2ccoc2)cn1)n1ccnc1 (stereo not shown) [Example 13, 2-(1-(1H-imidazol-1-yl)ethyl)-5-(furan-3-yl)pyridine]	0.201 to 10
CCC(c1nnc(-c2ccc(F)cc2)s1)n1ccnc1 (stereo not shown) [Example 19, 2-(1-(1H-imidazol-1-yl)propyl)-5-(4-fluorophenyl)-1,3,4-thiadiazole]	0.05 to 0.2
CC(c1ccc(-c2ccc(=O)n(C)c2)s1)n1ccnc1 (stereo not shown) [Example 20, 5-(5-(1-(1H-imidazol-1-yl)ethyl)thiophen-2-yl)-1-methylpyridin-2(1H)-one]	< 0.05
CC(c1ccc(-c2ccc(=O)n(C(C)C)c2)s1)n1ccnc1 (stereo not shown) [Example 21, 5-(5-(1-(1H-imidazol-1-yl)ethyl)thiophen-2-yl)-1-isopropylpyridin-2(1H)-one]	0.05 to 0.2
CC(c1cnc(-c2ccc(C#N)cc2)s1)n1ccnc1 (stereo not shown) [Example 22, 4-(5-(1-(1H-imidazol-1-yl)ethyl)thiazol-2-yl)benzonitrile]	0.05 to 0.2
CC(C)CC(c1ccc(-c2ccc(O)cc2)s1)n1ccnc1 (stereo not shown) [Example 23, 4-(5-(1-(1H-imidazol-1-yl)-3-methylbutyl)-thiophen-2-yl)phenol]	< 0.05
COc1ccc(-c2ccc(C(C)(C)n3ccnc3)s2)cc1 [Example 24, 1-(2-(5-(4-methoxyphenyl)-thiophen-2-yl)-propan-2-yl)-1H-imidazole]	< 0.05
COc1ccc(-c2ccc(C(C)n3ccnc3)s2)cn1 (stereo not shown) [Example 25, 5-[5-(1-Imidazol-1-yl-ethyl)-thiophen-2-yl]-2-methoxy-pyridine]	< 0.05
CC(C)(c1ccc(-c2ccc(O)cc2)s1)n1ccnc1 [Example 26, 4-[5-(1-Imidazol-1-yl-1-methyl-ethyl)-thiophen-2-yl]-phenol]	< 0.05
CCC(c1ccc(-c2ccc(OC)cc2)o1)n1ccnc1 (stereo not shown) [Example 27, 1-{1-[5-(4-Methoxy-phenyl)-furan-2-y]-propyl}-1H-imidazole]	< 0.05
CC(c1cnc(-c2ccc(F)cc2F)s1)n1ccnc1 (stereo not shown) [Example 28, 2-(2,4-Difluoro-phenyl)-5-(1-imidazol-1-yl-ethyl)-thiazole]	< 0.05
CCC(c1ccc(-c2ccc(O)cc2)o1)n1ccnc1 (stereo not shown) [Example 30, 4-[5-(1-Imidazol-1-yl-propyl)-furan-2-yl]-phenol]	< 0.05
CCC(c1cnc(-c2ccc(NC(=O)OC(C)(C)C)cc2)s1)n1ccnc1 (stereo not shown) [Example 31, {4-[5-(1-Imidazol-1-yl-propyl)-thiazol-2-yl]-phenyl}-carbamic acid tert-butyl ester]	< 0.05
CCC(c1cnc(-c2ccc(F)cc2F)s1)n1ccnc1 (stereo not shown) [Example 32, 2-(2,4-Difluoro-phenyl)-5-(1-imidazol-1-yl-propyl)-thiazole]	< 0.05
CCC(c1cnc(-c2ccc(F)cc2)s1)n1ccnc1 (stereo not shown) [Example 33, 2-(4-Fluoro-phenyl)-5-(1-imidazol-1-yl-propyl)-thiazole]	< 0.05
CC(c1ccc(-c2ccc(F)cc2)cn1)n1ccnc1 (stereo not shown) [Example 34, 5-(4-Fluoro-phenyl)-2-(1-imidazol-1-yl-ethyl)-pyridine]	< 0.05
CCC(c1cnc(-c2ccc(OC)cc2)s1)n1ccnc1 (stereo not shown) [Example 35, 5-(1-Imidazol-1-yl-propyl)-2-(4-methoxy-phenyl)-thiazole]	0.05 to 0.2
COc1ccc(-c2ccc(C(C)n3ccnc3)s2)cc1 (stereo not shown) [Example 36, 1-{1-[5-(4-Methoxy-phenyl)-thiophen-2-yl]-ethyl}-1H-imidazole]	< 0.05
CCC(c1cccc(-c2ccc(OC)cc2)n1)n1ccnc1 (stereo not shown) [Example 38, 2-(1-Imidazol-1-yl-propyl)-6-(4-methoxy-phenyl) pyridine]	0.05 to 0.2
COc1ccc(-c2ccc(C(CC(C)C)n3ccnc3)s2)cc1 (stereo not shown) [Example 39, 1-{1-[5-(4-Methoxy-phenyl)-thiophen-2-yl]-3-methyl-butyl}-1H-imidazole]	< 0.05
CC(c1ccc(-c2ccccc2F)cn1)n1ccnc1 (stereo not shown) [Example 40, 5-(2-Fluoro-phenyl)-2-(1-imidazol-1-yl-ethyl)-pyridine]	0.05 to 0.2
